The subject of experiment [1] is Clostridium histolyticum collagenase. Briefly: Bacterial collagenase-based anti-MMP screening assay (SDS-PAGE gel analysis of undegraded Type I collagen). The experiment is classed as biochemical. On the procedure:
Bacterial collagenase-based anti-MMP screening assay: This assay employs purified Clostridium histolyticum collagenase (hereinafter “collagenase”) as the test enzyme for screening anti-MMP activity of compounds of interest. The screening assay involves incubating a constant concentration of collagenase with Type I soluble collagen and quantifying the amount of Type I collagen that remains undegraded in the presence of collagenase in the presence and absence of different test compounds. The basic assay composition comprises 50 μg of Type I collagen (e.g., human placental; Cat. # C7521; Sigma-Aldrich, St. Louis, […]., USA) and 50 μg of collagenase (e.g., Clostridium histolyticum E.C. 3.4.24.3; Cat. No. C7667 (1909 CDU/mg solid); Sigma-Aldrich, St. Louis, […]., USA) in a physiological buffer (pH 7.4) containing zinc ions, with a total reaction volume of 60 μl. […] The buffer composition used comprises […] Tris Base, 200 mM NaCl, 10 mM CaCl2, 0.05 mM ZnCl2, 3 mM NaN3 adjusted to […] with 1 N HCl.
Compounds of interest are added to the reaction system described above to assess their ability to inhibit collagenase degradation of collagen. As test compounds vary with respect to molecular weight and affinity for the dentin matrix, a range of concentrations (wt %) for each compound may be added to the basic reaction. Test compounds may be diluted approximately 1:5 in the final reaction volume by the subsequent sequential addition of solutions containing collagenase, collagen, and buffer.
The enzyme and the collagen are kept on ice. Twenty μL of enzyme (concentration of 5 μg protein/μL×20 μL=100 μg of enzyme) protein was incubated with 5 μL of loading buffer and 20 μL of inhibitor. The reaction was started by adding 20 μL of type I collagen (5 μg/μL×20=100 μg collagen). Thus, the total volume was 65 μL. The total protein was 100 μg enzyme protein plus 100 μg of collagen=200 μg protein in 65 μL. Thirty μL of that mixture was applied to the gel (30/65×200 μg protein=92.3 μg protein. Because the total volume was 65 μL and the inhibitor volume was 20 μL, the inhibitor was diluted 3.25-fold.
Following assembly, reactions are incubated for one hour at 37° C. The incubation reactions were terminated by submerging the tube in boiling water for 3 min. After termination, 30 μL of each reaction assay containing 92 μg of total protein is loaded onto a 7.5% SDS-PAGE polyacrylamide gel (BioRad, Hercules, Calif.) and subjected to electrophoresis at 200 V for 60 min. SDS-PAGE gels are routinely run with samples and various controls in the following order. The nature of the controls is further described below. Controls include collagenase alone (lane 1); collagen alone (lane 2); and collagen mixed with collagenase (lane 3). Assay reactions containing collagen mixed with collagenase plus various concentrations of the test collagenase inhibitor compounds are then loaded on the gel starting with lane 4 (loaded in order of decreasing compound concentration).
Following electrophoresis of the samples, the gel is stained in 0.25% Coomassie Brilliant Blue overnight and destained for 8 hrs in water prior to imaging. After destaining, the gels are digitally scanned to permit quantification of the amount of undegraded collagen present in each reaction, relative to the collagen standard in lane 2.
With regards to the controls, both Type I collagen and collagenase are proteins too large to migrate very far into the SDS-PAGE gel.

Another experiment deals with T1, human recombinant MMP-9 (Homo sapiens, UniProt P14780).
T1 construct: purchased AnaSpec, Inc. 72009
T1 sequence (P14780 94-707): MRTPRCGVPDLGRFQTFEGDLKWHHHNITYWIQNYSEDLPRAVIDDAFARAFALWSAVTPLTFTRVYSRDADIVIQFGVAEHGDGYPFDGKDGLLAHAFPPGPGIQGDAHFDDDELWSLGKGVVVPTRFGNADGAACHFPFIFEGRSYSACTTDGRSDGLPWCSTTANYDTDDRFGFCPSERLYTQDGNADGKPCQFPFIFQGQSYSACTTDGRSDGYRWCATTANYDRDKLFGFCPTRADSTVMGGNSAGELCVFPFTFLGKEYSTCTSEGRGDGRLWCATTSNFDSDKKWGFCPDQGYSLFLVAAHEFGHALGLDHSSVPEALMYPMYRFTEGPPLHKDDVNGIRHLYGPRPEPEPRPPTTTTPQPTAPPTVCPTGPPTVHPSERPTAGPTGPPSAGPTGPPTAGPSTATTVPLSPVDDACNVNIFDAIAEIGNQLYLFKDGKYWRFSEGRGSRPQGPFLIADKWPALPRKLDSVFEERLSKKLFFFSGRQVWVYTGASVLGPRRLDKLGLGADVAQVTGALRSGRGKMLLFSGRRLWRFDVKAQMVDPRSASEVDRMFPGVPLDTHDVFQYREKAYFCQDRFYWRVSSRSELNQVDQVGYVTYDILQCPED
Nature of the experiment: Human MMP-9-based anti-MMP screening assay (Sensolyte Generic MMP colorimetric kit). It is filed as biochemical. The conditions noted are these: soluble human MMP-9. On the procedure:
Human MMP-9-based anti-MMP screening assay: This assay employed purified human recombinant MMP-9 (Cat. No. 72009) and the Sensolyte Generic MMP colorimetric assay kit (Cat. No. 72095) from AnaSpec, Inc. (San Jose, Calif., USA) for screening anti-MMP activity of compounds of interest. This assay involves incubating a constant concentration of human MMP-9 with a proprietary thiopeptide substrate and quantifying the amount of substrate cleaved by the […] in the presence and absence of different test compounds. Cleavage of the proprietary thiopeptide substrate is quantitated by evaluating color production. Reactions may be assembled in a 96-well plate. After incubation for 30 minutes at 37° C., reactions are stopped and absorption measured at 412 nm using a 96-well plate reader synergy HT (BioTek Instruments, Inc., Winooski, Vt., USA).

Several values for one entry are separate records, joined by “and”; a condition that tells them apart may be missing. Equal entries are not always repeated. Structures can show the parent of a compound that is named as a salt.

Data on eleven compounds can be found in patent US20110256510A1, “Use of Quaternary Ammonium Compounds to Inhibit Endogenous MMPs in Tooth Dentin” (priority 2009, published 2011).

As to `C=C(C)C(=O)NCCC[N+](C)(C)C.[Cl-]` [MAPTAC, [3-(Methacryloylamino)propyl]trimethylammonium chloride], the “COLLAGENASE INHIBITION (%)” value was found to be 41% in experiment [1] (inhibitor 0.1 wt %); 39% in experiment [1] (inhibitor 0.5 wt %); 53% in experiment [1] (inhibitor 1 wt %); 53% in experiment [1] (inhibitor 5 wt %); 55% in experiment [1] (inhibitor 10 wt %). Further, the “% MMP ACTIVITY INHIBITION (t = 30 minutes)” value (from here on “% MMP ACTIVITY INHIBITION”) came to 6% on human recombinant MMP-9 (inhibitor 10 wt %) and 17% on human recombinant MMP-9 (inhibitor 24 wt %).

For the compound `C=C(C)C(=O)OCC[N+](C)(C)C` [MCMS, 2-[(Methacryloyloxy)ethyl]trimethylammonium methyl sulfate], the “COLLAGENASE INHIBITION (%)” value in experiment [1] (inhibitor 0.5 wt %) was 73%; in experiment [1] (inhibitor 1 wt %) it was 70%; in experiment [1] (inhibitor 4 wt %), 65%; in experiment [1] (inhibitor 8 wt %), 62%; in experiment [1] (inhibitor 16 wt %) it was 87%. The results for the “% MMP ACTIVITY INHIBITION” value at human recombinant MMP-9 (inhibitor 10 wt %) and on human recombinant MMP-9 (inhibitor 24 wt %) were 55% and 84%, respectively.

For `C=CC[N+](C)(C)CC=C.[Cl-]` [DDAC, Diallyldimethylammonium chloride], the “COLLAGENASE INHIBITION (%)” value in experiment [1] (inhibitor 0.5 wt %) came out at 50%; in experiment [1] (inhibitor 1 wt %) it was 56%; in experiment [1] (inhibitor 3 wt %), 59%; in experiment [1] (inhibitor 6 wt %), 66%; in experiment [1] (inhibitor 12 wt %), 73%. The “% MMP ACTIVITY INHIBITION” value on human recombinant MMP-9 (inhibitor 10 wt %) was 7%; at human recombinant MMP-9 (inhibitor 24 wt %), 16%.

As to `C=CC(=O)OCC[N+](C)(C)C.[Cl-]` [ATA, 2-Acryloxyethyltrimethylammonium chloride], the “COLLAGENASE INHIBITION (%)” value was determined as 57% in experiment [1] (inhibitor 0.5 wt %); 55% in experiment [1] (inhibitor 1 wt %); 44% in experiment [1] (inhibitor 4 wt %); 49% in experiment [1] (inhibitor 8 wt %); 73% in experiment [1] (inhibitor 16 wt %). Besides, the “% MMP ACTIVITY INHIBITION” value was determined as 79% at human recombinant MMP-9 (inhibitor 10 wt %) and 82% on human recombinant MMP-9 (inhibitor 24 wt %).

Turning to `CC(=O)O.CC(=O)O.NC(=N\CCCCCC/N=C(N)/N=C(\N)Nc1ccc(Cl)cc1)/N=C(\N)Nc1ccc(Cl)cc1` [Chlorhexidine diacetate, chlorhexidine diacetate, reference compound], the “COLLAGENASE INHIBITION (%)” value in experiment [1] (inhibitor 0.02 wt %) was 1%; in experiment [1] (inhibitor 0.02 wt %, listed as CHX) it was “did not inhibit collagenase”; in experiment [1] (inhibitor 0.2 wt %), 74%; in experiment [1] (inhibitor 0.2 wt %, listed as CHX), 69%.

For the compound `Cc1c(OCC(O)C[N+](C)(C)C)cc2c(=O)c3ccccc3sc2c1C.[Cl-]` (stereo not drawn) [OTX, [3-(3,4-dimethyl-9-oxo-9H-thioxanthen-2-yloxy)-2-hydroxypropyl] trimethyl ammonium chloride], the results for the “COLLAGENASE INHIBITION (%)” value in experiment [1] (inhibitor 0.1 wt %) and in experiment [1] (inhibitor 0.2 wt %) were 57% and 86%, respectively.

In the case of “benzalkonium chloride [reference compound]”, the “COLLAGENASE INHIBITION (%)” value in experiment [1] (inhibitor 10 wt %) is given as “no inhibitory activity”.

For “pyridinium tribromide [reference compound]”, the “COLLAGENASE INHIBITION (%)” value in experiment [1] (inhibitor 1 wt %) is listed as “no inhibitory activity”.

With `C=C(C)C(=O)OCC[N+](C)(C)C.[Cl-]` [METMAC, [2-(Methacryloyloxy)ethyl]trimethylammonium chloride], the “COLLAGENASE INHIBITION (%)” value is recorded as 39% in experiment [1] (inhibitor 1.3 wt %), 56% in experiment [1] (inhibitor 6.4 wt %), 69% in experiment [1] (inhibitor 12.9 wt %) and 100% in experiment [1] (inhibitor 25.7 wt %). Moreover, the inhibited collagenase in experiment [1] (inhibitor 12.85%) is listed as 69%. Further, the “% MMP ACTIVITY INHIBITION” value on human recombinant MMP-9 (inhibitor 10 wt %) is 42%; on human recombinant MMP-9 (inhibitor 24 wt %) it was 71%.

As for `CCCCCCCCCCCCCCCC[N+](C)(C)C.[Br-]` [hexadecyl trimethyl ammonium bromide, reference compound], in experiment [1] (inhibitor 0.15% in ethanol), the “inhibitory activity against collagenase” value is “no inhibitory activity”.

`O=C(O)CN(CCN(CC(=O)O)CC(=O)O)CC(=O)O` [EDTA, reference compound]: in experiment [1] (inhibitor 10 mM (control lane)), the inhibited collagenase was 100% and 87%.
